Measurements from ChEMBL document CHEMBL3885861, “Open TG-GATES”.

Species: Rattus norvegicus
Test: Open TG-GATES - Regimen: Single
Format: toxicity, organism-based, Sprague-Dawley
Design: regimen Single, gender Male, age 6 weeks
Settings: in vivo, po, route gavage; for gamma-GTP / ALP / ALT / AST / BUN / CRE / Ca / Cl / DBIL / GLC / IP / K / LDH / Na / PL / RALB / TBIL / TC / TG / TP: tissue Plasma; for APTT / Bas / Eos / Fbg / Hb / Ht / Lym / MCH / MCHC / Mono / Neu / Plat / RBC / Ret / WBC: tissue Blood; for KIDNEY_L / KIDNEY_R / KIDNEY_TOTAL: tissue Kidney; for LIVER: tissue Liver

Work on `O=C(CCCN1CCC(O)(c2ccc(Cl)cc2)CC1)c1ccc(F)cc1` [HALOPERIDOL] yielded a gamma-GTP (0 mg/kg, 24 h, dose level Control) of 1 IU/L, a TERMINAL_BW (3 mg/kg, 3 h, dose level Low) of 203.1 g and an APTT (3 mg/kg, 3 h, dose level Low) of 16.9 s. It also gave a Bas (3 mg/kg, 3 h, dose level Low) of 0%, an Eos (3 mg/kg, 3 h, dose level Low) of 0.8% and a Fbg (3 mg/kg, 3 h, dose level Low) of 205.8 mg/dL. The Hb (3 mg/kg, 3 h, dose level Low) was 13.5 g/dL, the Ht (3 mg/kg, 3 h, dose level Low) was 40.4% and the Lym (3 mg/kg, 3 h, dose level Low) was 70.4%. For the same compound, the MCH (3 mg/kg, 3 h, dose level Low) was 21.8 pg, the MCHC (3 mg/kg, 3 h, dose level Low) was 33.5% and the Mono (3 mg/kg, 3 h, dose level Low) was 8.2%. It also gave a Neu (3 mg/kg, 3 h, dose level Low) of 20.6%, a Plat (3 mg/kg, 3 h, dose level Low) of 101.1 x10_4/uL and an RBC (3 mg/kg, 3 h, dose level Low) of 620.8 x10_4/ul. It also gave a Ret (3 mg/kg, 3 h, dose level Low) of 8.3%, a WBC (3 mg/kg, 3 h, dose level Low) of 102.1 x10_2/uL and a KIDNEY_L (3 mg/kg, 3 h, dose level Low) of 0.9 g. For the same compound, the KIDNEY_R (3 mg/kg, 3 h, dose level Low) was 0.9 g, the KIDNEY_TOTAL (3 mg/kg, 3 h, dose level Low) was 1.8 g and the LIVER (3 mg/kg, 3 h, dose level Low) was 9.6 g. For the same compound, the ALP (3 mg/kg, 3 h, dose level Low) was 1074.8 IU/L, the ALT (3 mg/kg, 3 h, dose level Low) was 42.2 IU/L and the AST (3 mg/kg, 3 h, dose level Low) was 61.2 IU/L. For the same compound, the BUN (3 mg/kg, 3 h, dose level Low) was 12.6 mg/dL, the CRE (3 mg/kg, 3 h, dose level Low) was 0.5 mg/dL and the Ca (3 mg/kg, 3 h, dose level Low) was 11.1 mg/dL. It also gave a Cl (3 mg/kg, 3 h, dose level Low) of 105.2 meq/L, a DBIL (3 mg/kg, 3 h, dose level Low) of 0.028 mg/dL and a GLC (3 mg/kg, 3 h, dose level Low) of 202.8 mg/dL. For the same compound, the IP (3 mg/kg, 3 h, dose level Low) was 10.4 mg/dL, the K (3 mg/kg, 3 h, dose level Low) was 4.7 meq/L and the LDH (3 mg/kg, 3 h, dose level Low) was 92.6 IU/L. For the same compound, the Na (3 mg/kg, 3 h, dose level Low) was 139.4 meq/L, the PL (3 mg/kg, 3 h, dose level Low) was 141.2 mg/dL and the RALB (3 mg/kg, 3 h, dose level Low) was 3.6 g/dL. It also gave a TBIL (3 mg/kg, 3 h, dose level Low) of 0.3 mg/dL, a TC (3 mg/kg, 3 h, dose level Low) of 78.6 mg/dL and a TG (3 mg/kg, 3 h, dose level Low) of 41.6 mg/dL. It also gave a TP (3 mg/kg, 3 h, dose level Low) of 5.7 g/dL, a gamma-GTP (3 mg/kg, 3 h, dose level Low) of 1.4 IU/L and a TERMINAL_BW (3 mg/kg, 6 h, dose level Low) of 200.5 g. The APTT (3 mg/kg, 6 h, dose level Low) was 16.6 s, the Bas (3 mg/kg, 6 h, dose level Low) was 0% and the Eos (3 mg/kg, 6 h, dose level Low) was 0.6%. It also gave a Fbg (3 mg/kg, 6 h, dose level Low) of 205.2 mg/dL, a Hb (3 mg/kg, 6 h, dose level Low) of 13.5 g/dL and a Ht (3 mg/kg, 6 h, dose level Low) of 40.5%. For the same compound, the Lym (3 mg/kg, 6 h, dose level Low) was 77%, the MCH (3 mg/kg, 6 h, dose level Low) was 21.7 pg and the MCHC (3 mg/kg, 6 h, dose level Low) was 33.3%. For the same compound, the Mono (3 mg/kg, 6 h, dose level Low) was 7.2%, the Neu (3 mg/kg, 6 h, dose level Low) was 15.2% and the Plat (3 mg/kg, 6 h, dose level Low) was 103.7 x10_4/uL. The RBC (3 mg/kg, 6 h, dose level Low) was 619.8 x10_4/ul, the Ret (3 mg/kg, 6 h, dose level Low) was 8.8% and the WBC (3 mg/kg, 6 h, dose level Low) was 90.9 x10_2/uL. It also gave a KIDNEY_L (3 mg/kg, 6 h, dose level Low) of 0.9 g, a KIDNEY_R (3 mg/kg, 6 h, dose level Low) of 0.9 g and a KIDNEY_TOTAL (3 mg/kg, 6 h, dose level Low) of 1.9 g. For the same compound, the LIVER (3 mg/kg, 6 h, dose level Low) was 9 g, the ALP (3 mg/kg, 6 h, dose level Low) was 897.8 IU/L and the ALT (3 mg/kg, 6 h, dose level Low) was 34.4 IU/L. It also gave an AST (3 mg/kg, 6 h, dose level Low) of 57.2 IU/L, a BUN (3 mg/kg, 6 h, dose level Low) of 9.6 mg/dL and a CRE (3 mg/kg, 6 h, dose level Low) of 0.4 mg/dL. It also gave a Ca (3 mg/kg, 6 h, dose level Low) of 10.6 mg/dL, a Cl (3 mg/kg, 6 h, dose level Low) of 105.8 meq/L and a DBIL (3 mg/kg, 6 h, dose level Low) of 0.034 mg/dL. It also gave a GLC (3 mg/kg, 6 h, dose level Low) of 184.4 mg/dL, an IP (3 mg/kg, 6 h, dose level Low) of 10.6 mg/dL and a K (3 mg/kg, 6 h, dose level Low) of 4.9 meq/L. For the same compound, the LDH (3 mg/kg, 6 h, dose level Low) was 81.6 IU/L, the Na (3 mg/kg, 6 h, dose level Low) was 139.2 meq/L and the PL (3 mg/kg, 6 h, dose level Low) was 142 mg/dL. For the same compound, the RALB (3 mg/kg, 6 h, dose level Low) was 3.6 g/dL, the TBIL (3 mg/kg, 6 h, dose level Low) was 0.3 mg/dL and the TC (3 mg/kg, 6 h, dose level Low) was 84.4 mg/dL. It also gave a TG (3 mg/kg, 6 h, dose level Low) of 32.4 mg/dL and a TP (3 mg/kg, 6 h, dose level Low) of 5.4 g/dL.
